Reference: a melting point compilation (Tetko et al.; mined from patent text by program, amines drawn as free bases though some values may be those of a salt)

| SMILES | melting point [°C] |
| --- | --- |
| COCOc1cccc2c(=O)[nH]c(CCCCN(C)C)cc12 | 109 to 111 |
| Cn1c(=O)c2ccccc2n(C)c1=S | 184 |
| O=Cc1c(F)cccc1Sc1ccc(F)cc1 | 94 to 97 |
| C#CCSc1cc(-c2nn(C)c(SC)c2Cl)c(F)cc1Cl | 93 to 96 |
| CCOC(=O)C(=Cc1ccc(N(C)C)cc1[N+](=O)[O-])C(=O)OCC | 101 to 102 |
| CCOC(=O)c1ccc(C=CC2(O)CN3CCC2CC3)cc1 (stereo not drawn) | 160 to 162 |
| O=[N+]([O-])c1cccc(OCCCl)c1 | 54.5 to 57 |
| CC1(C)c2cc(C#N)ccc2OC1N=C=S (stereo not drawn) | 52 |
| CNC(=O)N1C=CSC1c1sc(SC)c2c1CC(C)(C)CC2=O (stereo not drawn) | 202 to 204 |
| CCOc1c(CS(=O)(=O)C2=NOC(C)(CCl)C2)c(C(F)(F)F)nn1CC (stereo not drawn) | 67 to 69 |
| CC(C)c1nc(-c2cccs2)cc(-c2ccc(F)cc2)c1C=O | 123 to 125 |
| COc1ccc(N2CCN(c3ccc(S(=O)(=O)N[C@@H](Cc4ccccc4)C(=O)O)cc3)CC2)cc1 | 203 to 205 |
| CCCC(CC)(CC)C(=O)O[C@H]1C[C@H](O)C=C2C=C[C@H](C)[C@H](CC[C@@H]3C[C@@H](O)CC(=O)O3)[C@H]21 | 130 to 131 |
| CC(C)C[C@H](NC(=O)OCc1ccccn1)C(=O)N[C@@H](Cc1ccccc1)C(=O)CSCc1ccco1 | 93 to 94 |
| Cc1cc(OCC2CO2)c2c3c(c(=O)oc2c1)CCCC3 (stereo not drawn) | 164 to 165 |
| O=C(c1ccc2[nH]ccc2c1)N1CCN(CCc2ccc3nonc3c2)CC1 | 180 to 183 |
| C#Cc1cn(C)c2cc(-c3ccccc3Cl)c3c(c12)C(=O)NC3=O | 125 to 129 |
| C[Si](C)(C)c1ccc2cc(C(=O)O)n(Cc3cccc(F)c3)c2c1 | 189 to 191 |
| O=c1c2cc(Cl)ccc2nc(C(S)c2ncnc3[nH]cnc23)n1-c1ccccc1Cl (stereo not drawn) | 237 to 238 |
| CCOC(=O)c1ccc(NC(=O)NC2CN(C(=O)c3cccs3)c3ccc(C)cc3N(CC(=O)c3cccs3)C2=O)cc1 (stereo not drawn) | 244 |
| Cc1cc(C)nc(NC(N)=S)n1 | > 260 |
| Cc1c(Cl)nc(=O)n(C)c1N | 254 to 256 |
| COc1ccc(C2(CC3CO3)S(=O)(=O)CCCS2(=O)=O)cc1OC (stereo not drawn) | 175 to 176 |
| CNC(Cc1ccccc1NC(=O)C(C)(C)C)c1ccccc1 (stereo not drawn) | 85 to 86 |
| CC(=NOCCO)c1ccc(S(=O)(=O)c2ccccc2)cc1 | 87 to 88 |

| SMILES | melting point [°C] |
| --- | --- |
| CC=CC(c1ccc2c(c1)nnn2C)n1ccnc1 (stereo not drawn) | 104 |
| CC1Cn2c(nc3c(c2=O)CCCC3)-c2[nH]c3ccccc3c21 (stereo not drawn) | 220 to 221 |
| c1ccc(-c2cc(NC3=NCCN3)cc3[nH]cnc23)cc1 | 149 to 151 |
| CS(=O)(=O)NCc1ccc2[nH]cc(CCN3C(=O)c4ccccc4C3=O)c2c1 | 162 to 165 |
| O=C(Nc1ccc(Oc2ccnc(N3CCC3)n2)c2ccccc12)c1cc(F)cc(N2CCOCC2)c1 | 196 to 197 |
| COC(=O)C(Oc1ccc(-c2ccc(Cl)cc2)cc1)C(F)(F)F (stereo not drawn) | 104 to 105 |
| CCOC(=O)c1c(Cn2nccn2)nc2cc(OC)c(OC)cc2c1-c1ccc(OC)c(OC)c1 | 163 to 164 |
| CCCc1c(OC(C(=O)O)c2ccc(Cl)c(Cl)c2)ccc(C(C)=O)c1O (stereo not drawn) | 177 to 180 |
| O=c1[nH]cccc1-c1ccccc1 | 223 to 229 |
| COc1cc2c(cc1OC)CN(CCc1ccc(N)cc1)C2 | 150 |
| O=C(c1ccccn1)c1cc2ccncc2[nH]1 | 219 to 222 |
| CCCCCC(Sc1ccc(OC)cc1)C(=O)O (stereo not drawn) | 90 to 95 |
| O=S(=O)(Nc1onc2c1CCCC2)c1ccccc1 | 155 to 157 |
| CC(=O)NC1CCCN(c2c(F)cc3c(=O)c(C(=O)O)cn(C4CC4)c3c2F)C1 (stereo not drawn) | 280 to 282 |
| CCCCN(CCCC)c1ccc(C=Cc2ccc(C=CC3=C(C#N)C(=C(C#N)C#N)OC3(C)C(F)(F)F)s2)c(OCc2ccccc2)c1 (stereo not drawn) | 184 to 185 |
| O=C(NCc1ccccc1C(=O)O)c1cccc(/C=C/c2nc(C3CCC3)cs2)c1 | 185 to 187 |
| COC1CC=C(c2ccc(C(C)=O)cc2)CC1 (stereo not drawn) | 40 to 42 |
| CCOC(=O)c1c(O)c2ccc(F)cc2c(=O)n1CC(C)(C)C | 92 to 93 |
| COc1ccc(CCNc2nccc(-c3cccc(NC(=O)CCCN4C=CC=NC4)c3)n2)cc1OC | 121 to 122 |
| CC1CC(=O)NN=C1c1ccc(N2CCN(C#N)CC2)c([N+](=O)[O-])c1 (stereo not drawn) | 247 to 248 |
| COc1cccc(-c2ccnc(Nc3cc(OC)c(OC)c(OC)c3)n2)c1 | 155 to 156 |
| NC(=O)C(N)N=Nc1ccccc1C(=O)c1ccccn1 (stereo not drawn) | 210 to 212 |
| CNC(=O)C(Cc1ccc(OC)cc1)NC(=O)C(CC(C)C)C(CC(=O)NCC(=O)O)SC(C)=O (stereo not drawn) | 188 to 192 |
| CN1CC(C)(C)Oc2c(C(=O)NC3CN4CCC3CC4)cccc21 (stereo not drawn) | 114 to 116 |
| O=c1nc(-c2c(-c3ccccc3)nn3ccccc23)cc[nH]1 | 287 to 289 |

| SMILES | melting point [°C] |
| --- | --- |
| CC(C)(C)N1C(=O)CN(c2ccccc2)C1=O | 116 |
| O=C(O)CCC(NC(=O)c1ccc(-c2ccccc2OC2OC(CO)C(O)C(O)C2O)cc1)C(=O)O (stereo not drawn) | 118 to 121 |
| OC(Cc1ccccc1)c1ccccc1Br (stereo not drawn) | 84 to 85 |
| Cc1c(OCc2ccccc2)c(=O)ccn1CC(=O)NCCCCNCCCNC(=O)Cn1ccc(=O)c(OCc2ccccc2)c1C | 89 |
| Clc1ccc(Nc2nnc(Cl)c3sccc23)cc1 | 139 to 142 |
| [N-]=[N+]=NCc1ccc2c(NC(=O)c3ccccc3)nccc2c1 | 125 to 129 |
| COc1ccc(S(=O)(=O)Nc2c(Cl)ncnc2Nc2ccccc2)cc1 | 174 to 175 |
| Cc1cc(F)ccc1-n1c(CF)nc2ccc(N)cc2c1=O | 193 to 196 |
| Cc1cccc(C)c1N(CC(=O)NCCC(=O)O)C(=O)c1ccc(Cl)cc1 | 154 to 156 |
| COC(=O)c1ccc(N2C(=O)CCC2(CO)CO)c(N)c1 | 192 to 194 |
| CCn1c(C)nc(N2CCc3ccccc3CC2)c([N+](=O)[O-])c1=O | 145 to 147 |
| O=C1CCCCc2cc(OCC3CCCCC3)ccc21 | 86 to 88 |
| O=[PH]1Oc2ccccc2-c2ccccc21 (stereo not drawn) | 116 |
| CCc1c2cccccc-2[nH]c1=O | 166 to 171 |
| COC1(c2ccc(Sc3ccc4c(ccc(=O)n4C)c3)s2)CCOCC1 | 119 to 120 |
| COc1cc(/C=C2\C(=O)NC(=O)\C2=C\c2ccccc2)ccc1OC1CCCC1 | 203 to 204 |
| CC1(C)NC(=O)C2CNCCN21 (stereo not drawn) | 174 |
| O=C1c2cc(O)ccc2SCC1Cc1ccccc1 (stereo not drawn) | 73 to 77 |
| CCCCc1oc2ccccc2c1C(=O)NCc1ccc2cc(OCC#N)ccc2c1 | 142 to 143 |
| CCOC(=O)c1cc2nc(C)nc-2[nH]c1C(=O)OCC | 164 to 165 |
| O=C(OCc1ccccc1)c1ccc(OCc2cccc(COc3ccc(C(=O)OCc4ccccc4)cc3Cl)c2)c(Cl)c1 | 95.8 to 97 |
| COCCSNS(=O)(=O)c1ccccc1 | 119 to 121 |
| CC(=O)Nc1cccc(-c2ccnc3c(C#N)cnn23)c1 | 252 to 254 |
